The text below walks through data of ChEMBL document CHEMBL1201862, “PubChem BioAssay data set” (2004).

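Interpolation was linear, between the two tested concentrations surrounding the appropriate level; five concentrations were tested over 48 hours in 96-well plates. Abbreviation: GI50, concentration required for 50% inhibition of growth.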 The source made the active and inactive calls. Rule as the data show it: active = GI50 up to about 1.1 µM and inactive = higher.

Holding throughout (test): NCI tumour cell line growth inhibition, 48 h
Test [1] concerns A498.
In test [2] the test system is K562.
In test [3] the test system is IGROV-1.
Test [4] relates to MDA-MB-231.
Test [5] concerns OVCAR-3.
In test [6] the test system is UACC-62.
The test system of test [7] is NCI-H23.
Test [8] deals with SR.
Test [9] concerns SF-539.
The subject of test [10] is NCI-H226.
Test [11] deals with HCC 2998.
Test [12] deals with OVCAR-5.
The test system of test [13] is CAKI-1.
Test [14] has as its system 786-0.
In test [15] the test system is MOLT-4.
Test [16] relates to HCT-15.
The test system of test [17] is U-251.
The test system of test [18] is OVCAR-8.
The subject of test [19] is NCI-H522.
Test [20] relates to SNB-75.

Turning to `COC(=O)c1nc2n(n1)-c1ccccc1C(=O)N(Cc1ccccc1)C2`, the GI50 in [1], in test [2], in [3], in test [4], in [5] and in test [6] was > 100 µM (inactive) throughout. Further, the GI50 in test [7] is > 100 µM (inactive); in [8] it was > 100 µM (inactive); in [9] it was > 100 µM (inactive); in test [10], > 100 µM (inactive); in test [11] it was 40.4 µM (inactive); in test [12], > 100 µM (inactive). For the same compound, the GI50 in test [13] is > 100 µM (inactive); in test [14], > 100 µM (inactive); in test [15] it was > 100 µM (inactive); in test [16], more than 100 µM; in test [17] it was > 100 µM (inactive); in test [18], > 100 µM (inactive). Besides, in test [19], the GI50 was > 100 µM (inactive).
Turning to `O=C1c2cc(Cl)ccc2N=C(NC2CCCC2)C2CSCN12` (stereo not given), the GI50 in [1] was 68.9 µM (inactive); in test [2], 59.2 µM (inactive); in test [3], > 100 µM (inactive); in test [4], > 100 µM (inactive); in [5] it was 60 µM (inactive); in [6], > 100 µM (inactive). The GI50 in test [8] was 41.5 µM (inactive); in [10], 60 µM (inactive); in [11] it was > 100 µM (inactive); in [12], > 100 µM (inactive); in test [13] it was > 100 µM (inactive); in [14] it was > 100 µM (inactive). In addition, the GI50 is 33.5 µM (inactive) in test [15]; more than 100 µM in test [16]; > 100 µM (inactive) in test [17]; > 100 µM (inactive) in test [18]; 52.7 µM (inactive) in test [20]; 63.8 µM (inactive) in test [19].
As for `CCOC(=O)CSc1nnc(CSc2nc(-c3ccccc3)c(-c3ccccc3)[nH]2)n1-c1ccccc1`, the GI50 in test [1] was 17.9 µM (inactive); in [2], > 100 µM (inactive); in test [3], > 83 µM (inactive); in test [4], 34.5 µM (inactive); in test [5], > 100 µM (inactive); in test [6], 27.2 µM (inactive). The GI50 was > 100 µM (inactive) in [7]; 39.4 µM (inactive) in test [8]; 20.7 µM (inactive) in test [9]; 42.3 µM (inactive) in test [10]; 19.5 µM (inactive) in [11]; > 59.2 µM (inactive) in [12]. Moreover, the GI50 in test [14] was 24.6 µM (inactive); in test [15], > 49.8 µM (inactive); in test [16], more than 100 µM; in test [17] it was > 100 µM (inactive); in test [18], 18.7 µM (inactive); in [20], > 100 µM (inactive). Also, the GI50 in test [19] was > 87.7 µM (inactive).
As for `Cn1c(=O)c2nc(CCCc3ccc([N+](=O)[O-])cc3)[nH]c2n(C)c1=O`, the GI50 in [1] was > 100 µM (inactive); in test [2] it was 31.2 µM (inactive); in [3] it was > 100 µM (inactive); in [4], > 100 µM (inactive); in test [5], > 100 µM (inactive); in [6] it was > 100 µM (inactive). The GI50 was > 100 µM (inactive) in [7]; > 100 µM (inactive) in test [8]; 38.5 µM (inactive) in [9]; > 100 µM (inactive) in [10]; > 100 µM (inactive) in test [12]; > 100 µM (inactive) in test [13]. The GI50 is > 100 µM (inactive) in test [14]; 56.6 µM (inactive) in [15]; more than 100 µM in [16]; > 100 µM (inactive) in test [17]; > 100 µM (inactive) in test [18]; > 100 µM (inactive) in test [20]. In test [19], the GI50 is > 100 µM (inactive).
For the compound `COCC12CCC(OC)C34C5CC6(O)C(OC)C=C(C5C6OC(=O)c5ccccc5)C(C(OC)C13)C4N(C)C2` (stereo not given), the GI50 in [1], in [3], in [4], in test [5], in test [6] and in [7] was > 100 µM (inactive) each time. Moreover, the GI50 in test [8], in [9], in [11], in test [12], in test [13] and in test [14] was > 100 µM (inactive) each time. The GI50 was more than 100 µM in test [16]; > 100 µM (inactive) in test [17]; > 100 µM (inactive) in [18]; 32.1 µM (inactive) in [20]; > 100 µM (inactive) in [19].
Consider `CC1=C(C#N)C(C#N)(C#N)C(NN(C)C)C1` (stereo not given), for which the GI50 is 20.9 µM (inactive) in test [1]; 12.2 µM (inactive) in [2]; 17.8 µM (inactive) in test [3]; 14.2 µM (inactive) in test [4]; 15.9 µM (inactive) in test [6]; 17.1 µM (inactive) in test [7]. Besides, the GI50 is 25.4 µM (inactive) in test [8]; 36.1 µM (inactive) in test [9]; 17.2 µM (inactive) in test [11]; 23.3 µM (inactive) in test [12]; 1.71 µM (inactive) in test [13]; 8.99 µM (inactive) in test [14]. Besides, the GI50 in test [15] was 18.5 µM (inactive); in test [16] it was 7.38 µM; in test [17] it was 33.9 µM (inactive); in [18], 26.3 µM (inactive); in [20] it was 21.4 µM (inactive); in test [19], 4.07 µM (inactive).
As to `COc1ccc(C2CC(c3ccc(NS(=O)(=O)c4cc([N+](=O)[O-])ccc4C)cc3)=NN2S(=O)(=O)c2cc([N+](=O)[O-])ccc2C)cc1` (stereo not given), the GI50 is 49.3 µM (inactive) in test [1]; 36.1 µM (inactive) in [2]; 44.4 µM (inactive) in test [3]; 43.6 µM (inactive) in test [4]; 33.4 µM (inactive) in test [5]; 26.4 µM (inactive) in [6]. The GI50 was 22.4 µM (inactive) in [7]; 51.4 µM (inactive) in [8]; > 100 µM (inactive) in test [10]; 10.5 µM (inactive) in [11]; > 100 µM (inactive) in test [12]; 54.2 µM (inactive) in test [13]. Also, the GI50 is 88.5 µM (inactive) in test [14]; 33.3 µM (inactive) in [15]; 36.2 µM in [16]; 36.8 µM (inactive) in test [17]; 71.9 µM (inactive) in test [18]; > 100 µM (inactive) in [20]. Moreover, the GI50 in test [19] was 22.3 µM (inactive).
With `CCOC(=O)[C@@H](Cc1ccc(CCl)cc1)NC(C)=O`, the GI50 in [2] is 34.4 µM (inactive); in [3], 23.7 µM (inactive); in test [4], 27.1 µM (inactive); in test [5], 30.1 µM (inactive); in [6], 15.9 µM (inactive); in test [7], 25 µM (inactive). For the same compound, the GI50 is 29.4 µM (inactive) in [8]; 18.3 µM (inactive) in test [9]; 28.1 µM (inactive) in test [10]; 17.7 µM (inactive) in test [11]; 20.6 µM (inactive) in test [12]; 25.6 µM (inactive) in [13]. Moreover, the GI50 in test [14] was 19.1 µM (inactive); in test [15], 29.2 µM (inactive); in test [16] it was 27.4 µM; in test [17], 19.6 µM (inactive); in test [18], 50.8 µM (inactive); in test [20], 26.6 µM (inactive). Moreover, the GI50 in test [19] is 17.6 µM (inactive).
With `O=[N+]([O-])C1=Cc2cc(Cl)ccc2OC1c1cccc2ccccc12` (stereo not given), the GI50 in [1] was 1.86 µM (inactive); in [2], 0.371 µM (active); in test [3], 0.625 µM (active); in test [4] it was 1.77 µM (inactive); in [5] it was 0.603 µM (active); in test [6], 1.57 µM (inactive). For the same compound, the GI50 in [7] was 0.847 µM (active); in test [8], 0.224 µM (active); in test [10], 1.62 µM (inactive); in test [11] it was 0.984 µM (active); in test [12], 1.99 µM (inactive); in test [13], 0.366 µM (active). Besides, the GI50 is 0.396 µM (active) in [14]; 0.251 µM (active) in [15]; 0.37 µM in test [16]; 1.56 µM (inactive) in [17]; 0.614 µM (active) in [18]; 0.6 µM (active) in [20]. In test [19], the GI50 is 1.27 µM (inactive).
For the compound `COc1ccc(C(CC2(c3ccc(OC)cc3)SCCCS2)NC(C)=O)cc1` (stereo not given), the GI50 in test [1] is 90.6 µM (inactive); in test [2], 35.4 µM (inactive); in [3], > 100 µM (inactive); in test [4] it was > 100 µM (inactive); in [5], 45.6 µM (inactive); in test [6], > 100 µM (inactive). The GI50 in test [7] was 29.4 µM (inactive); in test [8], 71.3 µM (inactive); in test [9] it was > 100 µM (inactive); in [11], 42.6 µM (inactive); in test [12], > 100 µM (inactive); in test [13] it was 72.3 µM (inactive). Besides, the GI50 is > 100 µM (inactive) in [14]; 30.1 µM (inactive) in test [15]; 37 µM in [16]; 38.8 µM (inactive) in test [17]; 42.3 µM (inactive) in test [18]; 32.4 µM (inactive) in test [20]. The GI50 in [19] was 29.2 µM (inactive).
Turning to `N#Cc1c(O)nc2[nH]nc(/N=N\c3c(O)ccc4ccccc34)c2c1-c1ccc(Cl)cc1`, the GI50 was 0.117 µM (active) in [1]; 1.63 µM (inactive) in [2]; 0.286 µM (active) in test [3]; 0.23 µM (active) in [4]; 0.0667 µM (active) in [5]; 0.103 µM (active) in [6]. Also, the GI50 in test [7] was 0.47 µM (active); in [8], 0.255 µM (active); in test [9] it was 0.29 µM (active); in [10] it was 0.4 µM (active); in test [11], 0.359 µM (active); in test [12], 0.834 µM (active). For the same compound, the GI50 in test [13] is 0.282 µM (active); in test [14], 0.0689 µM (active); in test [15], 0.171 µM (active); in [16] it was 0.019 µM; in [17], 0.124 µM (active); in test [18] it was 0.233 µM (active). The GI50 in [19] is 0.248 µM (active).
